Laboratory results taken from ChEMBL document CHEMBL3886335, “Difluorolactam compounds as EP4 receptor-selective agonists for use in the treatment of EP4-mediated diseases and conditions” (2015).
pIC50, pKi: −log10 of the molar value.

Biological target: Prostaglandin E2 receptor EP4 subtype (Homo sapiens, UniProt P35408)
Experiment: The filters are dried then counted for radioactivity in a scintillation counter (Topcount, Packard) using a scintillation cocktail (Microscint 0, Packard).
Assay type: cell membranes

Chain of Prostaglandin E2 receptor EP4 subtype (P35408 whole entry): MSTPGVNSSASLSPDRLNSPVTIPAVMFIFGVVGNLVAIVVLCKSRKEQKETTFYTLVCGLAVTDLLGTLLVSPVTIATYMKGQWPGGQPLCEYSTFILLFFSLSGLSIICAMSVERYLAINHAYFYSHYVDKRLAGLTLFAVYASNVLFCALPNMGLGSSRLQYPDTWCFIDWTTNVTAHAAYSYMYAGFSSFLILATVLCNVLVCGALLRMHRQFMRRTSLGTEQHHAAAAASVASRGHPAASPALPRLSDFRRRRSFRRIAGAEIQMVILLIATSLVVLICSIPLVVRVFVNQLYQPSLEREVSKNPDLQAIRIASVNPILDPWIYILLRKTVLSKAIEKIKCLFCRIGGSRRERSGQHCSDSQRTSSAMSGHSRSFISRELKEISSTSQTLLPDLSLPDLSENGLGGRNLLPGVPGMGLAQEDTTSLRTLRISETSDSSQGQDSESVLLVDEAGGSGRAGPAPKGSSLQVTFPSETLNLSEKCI

CCC#CC[C@H](C)[C@H](O)/C=C/[C@H]1CC(F)(F)C(=O)N1CCCc1ccc(C(=O)O)s1
pIC50: 8.48
pKi: 8.92
